Measured values published in patent US9260467B2, “Sialic acid dimers” (priority 2011, dated 2016).

Target: T1, Siglec-2 (CD22) (Homo sapiens, UniProt P20273)
T1 sequence (P20273 20-847): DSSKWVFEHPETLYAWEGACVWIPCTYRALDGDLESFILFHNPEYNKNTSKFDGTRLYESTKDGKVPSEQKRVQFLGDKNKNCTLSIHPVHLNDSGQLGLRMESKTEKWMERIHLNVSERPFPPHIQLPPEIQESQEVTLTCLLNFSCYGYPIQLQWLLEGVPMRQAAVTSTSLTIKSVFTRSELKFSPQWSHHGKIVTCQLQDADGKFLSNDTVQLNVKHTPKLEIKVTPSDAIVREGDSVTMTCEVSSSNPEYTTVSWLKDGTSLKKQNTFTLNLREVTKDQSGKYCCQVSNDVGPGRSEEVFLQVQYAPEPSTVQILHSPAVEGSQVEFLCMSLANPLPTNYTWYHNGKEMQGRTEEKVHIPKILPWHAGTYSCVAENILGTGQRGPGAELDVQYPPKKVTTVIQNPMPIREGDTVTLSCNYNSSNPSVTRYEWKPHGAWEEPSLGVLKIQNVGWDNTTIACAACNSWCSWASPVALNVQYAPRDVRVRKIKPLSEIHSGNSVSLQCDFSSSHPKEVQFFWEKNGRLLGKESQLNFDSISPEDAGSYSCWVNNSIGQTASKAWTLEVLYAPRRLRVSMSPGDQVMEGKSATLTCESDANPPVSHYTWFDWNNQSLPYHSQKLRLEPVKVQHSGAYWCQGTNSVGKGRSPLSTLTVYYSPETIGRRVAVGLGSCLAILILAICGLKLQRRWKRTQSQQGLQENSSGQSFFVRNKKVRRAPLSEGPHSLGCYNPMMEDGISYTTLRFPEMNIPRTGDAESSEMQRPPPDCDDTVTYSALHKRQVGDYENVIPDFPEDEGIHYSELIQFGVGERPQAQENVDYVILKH
Assay: new affinity assay: displacement of biotinylated compound 155 from sialidase-treated Daudi cells, FACS with streptavidin-PE
Format: binding
Design: endogenous in cells; host or cells: Daudi (human B-cell lymphoma line)
Details: Table II; rIP values set relative to compound 38; Daudi cells, displacement of compound 155
Experimental: To determine the affinity of the compound of the formula (I), approximately 5×10^6 to 2×10^8 cells of the human B-cell lymphoma line “Daudi” were incubated with sialidase (A. ureafaciens) at 37° C. for 1 h (final concentration 0.1 unit/ml). […] Batches of 1-2×10^6 cells were transferred to sample vessels, and incubated on ice for 15 min with serial concentrations (10-fold dilutions, 1 mM to 1×10^−7 mM) of the substance under measurement (inhibitor). The reaction volume was 50 μl. Then 50 microliters of compound 155 (4-micromolar) were added, and incubation took place for 20 min Washing with FACS buffer (PBS, 0.1 BSA, 0.01% sodium azide) was followed by incubation with streptavidin-PE in the dark for 15 min, followed by washing and measurement of the bound amount of […] via the streptavidin-PE in the FACS. For the determination of 0% displacement of the compound 155, cells without inhibitor were measured. For the determination of 100% displacement, cells were measured without compound 155 and without inhibitor. For each assay, four substances and one reference were measured. The IC50 values determined in each assay were subsequently converted into values of rIP (relative Inhibitory Potency). […]

| SMILES | rIP |
| --- | --- |
| CC(=O)N[C@H]1[C@H]([C@H](O)[C@H](O)CNC(=O)c2ccc(-c3ccccn3)cc2)O[C@@](OCCCSCCNC(=O)c2ccc(C(=O)NCCSCCCO[C@]3(C(=O)[O-])C[C@H](O)[C@@H](NC(C)=O)[C@H]([C@H](O)[C@H](O)CNC(=O)c4ccc(-c5ccccn5)cc4)O3)cc2)(C(=O)[O-])C[C@@H]1O.[Na+].[Na+] [Compound 77] | 95 |
| CC(=O)N[C@H]1[C@H]([C@H](O)[C@H](O)CNC(=O)c2ccc3c(c2)C(=O)c2ccccc2-3)O[C@@](OCCCSCCNC(=O)c2ccc(C(=O)NCCSCCCO[C@]3(C(=O)[O-])C[C@H](O)[C@@H](NC(C)=O)[C@H]([C@H](O)[C@H](O)CNC(=O)c4ccc5c(c4)C(=O)c4ccccc4-5)O3)cc2)(C(=O)[O-])C[C@@H]1O.[Na+].[Na+] [Compound 78] | 27 |
| CC(=O)N[C@H]1[C@H]([C@H](O)[C@H](O)CNC(=O)Cc2ccc(-c3ccccc3)cc2)O[C@@](OCCCSCCNC(=O)c2ccc(C(=O)NCCSCCCO[C@]3(C(=O)[O-])C[C@H](O)[C@@H](NC(C)=O)[C@H]([C@H](O)[C@H](O)CNC(=O)Cc4ccc(-c5ccccc5)cc4)O3)cc2)(C(=O)[O-])C[C@@H]1O.[Na+].[Na+] [Compound 79] | 181 |
| CC(=O)N[C@H]1[C@H]([C@H](O)[C@H](O)CNC(=O)c2ccc(-c3cccs3)cc2)O[C@@](OCCCSCCNC(=O)c2ccc(C(=O)NCCSCCCO[C@]3(C(=O)[O-])C[C@H](O)[C@@H](NC(C)=O)[C@H]([C@H](O)[C@H](O)CNC(=O)c4ccc(-c5cccs5)cc4)O3)cc2)(C(=O)[O-])C[C@@H]1O.[Na+].[Na+] [Compound 80] | 14342 |
| CC(=O)N[C@H]1[C@H]([C@H](O)[C@H](O)CNC(=O)c2ccc(-c3ccsc3)cc2)O[C@@](OCCCSCCNC(=O)c2ccc(C(=O)NCCSCCCO[C@]3(C(=O)[O-])C[C@H](O)[C@@H](NC(C)=O)[C@H]([C@H](O)[C@H](O)CNC(=O)c4ccc(-c5ccsc5)cc4)O3)cc2)(C(=O)[O-])C[C@@H]1O.[Na+].[Na+] [Compound 81] | 2068 |
| CC(=O)N[C@H]1[C@H]([C@H](O)[C@H](O)CNC(=O)c2ccc(-c3ccco3)cc2)O[C@@](OCCCSCCNC(=O)c2ccc(C(=O)NCCSCCCO[C@]3(C(=O)[O-])C[C@H](O)[C@@H](NC(C)=O)[C@H]([C@H](O)[C@H](O)CNC(=O)c4ccc(-c5ccco5)cc4)O3)cc2)(C(=O)[O-])C[C@@H]1O.[Na+].[Na+] [Compound 82] | 752 |
| CC(=O)N[C@H]1[C@H]([C@H](O)[C@H](O)CNC(=O)/C=C/c2ccccc2)O[C@@](OCCCSCCNC(=O)c2ccc(C(=O)NCCSCCCO[C@]3(C(=O)[O-])C[C@H](O)[C@@H](NC(C)=O)[C@H]([C@H](O)[C@H](O)CNC(=O)/C=C/c4ccccc4)O3)cc2)(C(=O)[O-])C[C@@H]1O.[Na+].[Na+] [Compound 83] | 73 |
| CC(=O)N[C@H]1[C@H]([C@H](O)[C@H](O)CNS(=O)(=O)c2ccc(-c3ccccc3)cc2)O[C@@](OCCCSCCNC(=O)c2ccc(C(=O)NCCSCCCO[C@]3(C(=O)[O-])C[C@H](O)[C@@H](NC(C)=O)[C@H]([C@H](O)[C@H](O)CNS(=O)(=O)c4ccc(-c5ccccc5)cc4)O3)cc2)(C(=O)[O-])C[C@@H]1O.[Na+].[Na+] [Compound 84] | 9 |
| CC(=O)N[C@H]1[C@H]([C@H](O)[C@H](O)CNCc2ccc(-c3ccccc3)cc2)O[C@@](OCCCSCCNC(=O)c2ccc(C(=O)NCCSCCCO[C@]3(C(=O)[O-])C[C@H](O)[C@@H](NC(C)=O)[C@H]([C@H](O)[C@H](O)CNCc4ccc(-c5ccccc5)cc4)O3)cc2)(C(=O)[O-])C[C@@H]1O.[Na+].[Na+] [Compound 85] | 1 |
| CC(=O)N[C@H]1[C@H]([C@H](O)[C@H](O)CNC(=O)c2ccc(-c3ccccc3)cc2)O[C@@](OCC(=O)NCCCC(=O)Nc2ccc(NC(=O)CCCNC(=O)CO[C@]3(C(=O)[O-])C[C@H](O)[C@@H](NC(C)=O)[C@H]([C@H](O)[C@H](O)CNC(=O)c4ccc(-c5ccccc5)cc4)O3)cc2)(C(=O)[O-])C[C@@H]1O.[Na+].[Na+] [Compound 90] | 1445 |
| CC(=O)N[C@H]1[C@H]([C@H](O)[C@H](O)CNC(=O)c2ccc(-c3ccccc3)cc2)O[C@@](OCCCCCCNC(=O)c2ccc(C(=O)NCCSCCCO[C@]3(C(=O)O)C[C@H](O)[C@@H](NC(C)=O)[C@H]([C@H](O)[C@H](O)CNC(=O)c4ccc(-c5ccccc5)cc4)O3)cc2)(C(=O)O)C[C@@H]1O [Compound 92] | 3788 |
| CC(=O)N[C@H]1[C@H]([C@H](O)[C@H](O)Cn2cc(-c3ccccc3)nn2)O[C@@](OCCCSCCNC(=O)c2ccc(C(=O)NCCSCCCO[C@]3(C(=O)[O-])C[C@H](O)[C@@H](NC(C)=O)[C@H]([C@H](O)[C@H](O)Cn4cc(-c5ccccc5)nn4)O3)cc2)(C(=O)[O-])C[C@@H]1O.[Na+].[Na+] [Compound 95] | 6 |
| CC(=O)N[C@H]1[C@H]([C@H](O)[C@H](O)CNC(=O)c2ccc(-c3ccccc3)cc2)O[C@@](OCCCSCCNC(=O)c2ccc(C(=O)NCCSCCCO[C@]3(C(=O)[O-])C[C@H](O)[C@@H](NC(C)=O)[C@H]([C@H](O)[C@H](O)CNC(=O)c4ccc(C5CCCCC5)cc4)O3)cc2)(C(=O)[O-])C[C@@H]1O.[Na+].[Na+] [Compound 103] | 185 |
| CC(=O)N[C@H]1[C@H]([C@H](O)[C@H](O)CNC(=O)c2ccc(-c3ccccc3)cc2)O[C@](C(=O)[O-])(n2cc(CCCCNC(=O)c3ccc(C(=O)NCCCCc4cn([C@]5(C(=O)[O-])C[C@H](O)[C@@H](NC(C)=O)[C@H]([C@H](O)[C@H](O)CNC(=O)c6ccc(-c7ccccc7)cc6)O5)nn4)cc3)nn2)C[C@@H]1O.[Na+].[Na+] [Compound 110] | 12 |
| CC(=O)N[C@H]1[C@H]([C@H](O)[C@H](O)CNC(=O)c2ccc(-c3ccccc3)cc2)O[C@@](OCCCSCCNC(=O)c2ccc(C(=O)NCCSCCCO[C@]3(C(=O)[O-])C[C@H](OC(=O)c4ccccc4)[C@@H](NC(C)=O)[C@H]([C@H](O)[C@H](O)CNC(=O)c4ccc(-c5ccccc5)cc4)O3)cc2)(C(=O)[O-])C[C@@H]1OC(=O)c1ccccc1.[Na+].[Na+] [Compound 113] | 3522 |
| CC(=O)N[C@H]1[C@H]([C@H](O)[C@H](O)CNC(=O)c2ccc(-c3ccccc3)cc2)O[C@@](NC(=O)CCCCCNC(=O)c2ccc(C(=O)NCCCCCC(=O)N[C@]3(C(=O)[O-])C[C@H](O)[C@@H](NC(C)=O)[C@H]([C@H](O)[C@H](O)CNC(=O)c4ccc(-c5ccccc5)cc4)O3)cc2)(C(=O)[O-])C[C@@H]1O.[Na+].[Na+] [Compound 116] | <1 |
| CC(=O)N[C@H]1[C@H]([C@H](O)[C@H](O)CNC(=O)c2ccc(-c3ccccc3)cc2)O[C@@](OCc2cn(CCNC(=O)c3ccc(C(=O)NCCn4cc(CO[C@]5(C(=O)[O-])C[C@H](O)[C@@H](NC(C)=O)[C@H]([C@H](O)[C@H](O)CNC(=O)c6ccc(-c7ccccc7)cc6)O5)nn4)cc3)nn2)(C(=O)[O-])C[C@@H]1O.[Na+].[Na+] [Compound 125] | 8 |
| CC(=O)N[C@H]1[C@H]([C@H](O)[C@H](O)CNC(=O)Cc2ccc3ccccc3c2)O[C@@](OCCCSCCNC(=O)c2ccc(-c3ccc(C(=O)NCCSCCCO[C@]4(C(=O)[O-])C[C@H](O)[C@@H](NC(C)=O)[C@H]([C@H](O)[C@H](O)CNC(=O)Cc5ccc6ccccc6c5)O4)cc3)cc2)(C(=O)[O-])C[C@@H]1O.[Na+].[Na+] [Compound 127] | 74 |
